Counter-ions that a name gives are not always drawn. Like-named read-outs stand apart in the source and are kept apart here.
Experiments:
Assay type in all cases: cell-based
[1] = system: Proteus mirabilis (ATCC 25933); experiment: MIC determination, microbroth dilution; settings: ATCC25933
[2] = system: Enterococcus faecalis (ATCC 33186); experiment: MIC determination, microbroth dilution
[3] = system: Neisseria gonorrhoeae (ATCC 49226); experiment: Agar MIC determination (Alamar Blue)
[4] = system: Bacillus anthracis; experiment: microbe, parasite or virus in culture; settings: read-out: MIC B.a.
[5] = system: Streptococcus pneumoniae (R6); experiment: MIC determination, microbroth dilution; settings: read-out: MIC S. pn.
[6] = system: Stenotrophomonas maltophilia (ATCC 13637); experiment: MIC determination, microbroth dilution
[7] = system: Listeria monocytogenes; experiment: MIC determination (Table 6)
[8] = system: Moraxella catarrhalis; experiment: MIC determination (Table 6)
[9] = system: E. coli K12 ΔtolC; experiment: microbe, parasite or virus in culture; settings: Escherichia coli, read-out: MIC E.c. Δtolc
[10] = system: Neisseria gonorrhoeae (ATCC 49226); experiment: Disc diffusion assay; settings: ATCC49226, 4 μg per disc, read-out: Zone of inhibition N.g.
[11] = system: Klebsiella pneumoniae (ATCC 33495); experiment: MIC determination, microbroth dilution; settings: ATCC33495
[12] = system: Escherichia coli (ATCC 700926); experiment: MIC determination, microbroth dilution
[13] = system: Staphylococcus aureus (ATCC 29213); experiment: MIC determination, microbroth dilution; settings: ATCC29213; Staphylococcus aureus (ATCC 29213); read-out: MIC S.a.
[14] = system: Streptococcus pyogenes (ATCC 700294); experiment: MIC determination, microbroth dilution; settings: ATCC700294; Streptococcus pyogenes (ATCC 700294); read-out: MIC S. py.
[15] = system: MRSA, Staphylococcus aureus (NRS70); experiment: MIC determination, microbroth dilution; settings: read-out: MIC MRSA
[16] = system: Bacillus subtilis (ATCC 23857); experiment: MIC determination, microbroth dilution; settings: ATCC23857; Bacillus subtilis (ATCC 23857); read-out: MIC B.s.
[17] = system: Burkholderia cepacia (ATCC 25416); experiment: MIC determination, microbroth dilution; settings: Burkholderia cepacia
[18] = system: Proteus vulgaris (ATCC 33420); experiment: MIC determination, microbroth dilution; settings: ATCC33420
[19] = system: Haemophilus influenza (ATCC 49247); experiment: microbe, parasite or virus in culture; settings: ATCC49247; Haemophilus influenza; 4 μg per disc; range of at least two experiments; read-out: Zone of inhibition H.i.
[20] = system: M. tuberculosis clinical isolates; experiment: microbe, parasite or virus in culture; settings: Mycobacterium tuberculosis, H37RV, read-out: MIC H37Rv
[21] = system: Bacillus anthracis, Sterne 34F2; experiment: microbe, parasite or virus in culture; settings: STERNE34F2, read-out: MIC B.a.
[22] = system: Neisseria meningitides (ATCC 13077); experiment: Disc diffusion assay; settings: ATCC13077, 4 μg per disc, read-out: Zone of inhibition N.m.
[23] = system: Pseudomonas aeruginosa (PA01); experiment: MIC determination, microbroth dilution
[24] = system: acinetobacter baumannii (ATCC 19606); experiment: MIC determination, microbroth dilution; settings: ATCC19606
[25] = system: Legionella pneumophila (ATCC 33153); experiment: microbe, parasite or virus in culture; settings: ATCC33153, 72 h, read-out: Zone of inhibition L.p.
[26] = ATCC33186, Enterococcus faecalis (ATCC 33186), read-out: MIC E.f.
[27] = ATCC49226, agar MIC, read-out: MIC N.g.
[28] = ATCC13637, Stenotrophomonas maltophilia (ATCC 13637), read-out: MIC S.m.
[29] = ATCC700926, Escherichia coli (ATCC 700926), read-out: MIC E.c.
[30] = ATCC25416, read-out: MIC B.c., Burkholderia cepacia (ATCC 25416)
[31] = ATCC25416, read-out: MIC B.c., Burkholderia cepacia, Table 6
[32] = Enterococcus faecalis, ATCC33186, read-out: MIC E.f.

Structure (SMILES) | MIC [1] | MIC [2, 26] | MIC [3, 27] | MIC ([5]; Streptococcus pneumoniae (R6)) | MIC [9] | MIC [11] | MIC [12, 29] | MIC [13] | MIC [14] | MIC ([15]; Staphylococcus aureus (NRS70)) | MIC [16] | MIC [17, 30] | MIC [18] | zone of inhibition at 4 µg/disc [19] | MIC [20] | MIC [21] | zone of inhibition at 4 µg/disc [22] | MIC [23] | MIC [24] | zone of inhibition at 4 µg/disc [25] | also measured
CN[C@@H]1[C@H](O)[C@H](NC)[C@H]2O[C@]3(O)[C@H](O[C@@H]2[C@H]1O)O[C@H](C)C[C@@]3(O)CNCc1cccc(C)n1 [compound 22, 3′-(A)-3′-[(6-Methyl)-2-pyridinylmethylamino)dihydrospectinomycin Tetrahydrobromide] | > 200 µg/mL | 25 µg/mL | 100 µg/mL | 6.3 to 12.5 µg/mL | 25 µg/mL | > 200 µg/mL | 100 to 200 µg/mL | 50 to 100 µg/mL | 6.3 µg/mL | ≥ 200 µg/mL | 50 µg/mL | > 200 µg/mL | > 200 µg/mL | 10 mm | 6.3 µg/mL | 50 µg/mL | 14 mm | > 200 µg/mL | > 200 µg/mL | – | MIC [4]: 50 µg/mL; MIC [6, 28]: 12.5 µg/mL; MIC [7]: 12.5 µg/mL; MIC [8]: 3.1 µg/mL; zone of inhibition at 4 µg/disc [10]: 11 mm; MIC [17, 31]: > 200 µg/mL
CN[C@@H]1[C@H](O)[C@H](NC)[C@H]2O[C@]3(O)[C@H](O[C@@H]2[C@H]1O)O[C@H](C)C[C@@]3(O)CNCc1ccc(Cl)s1 [compound 21, 3′-(A′)-3′-[(5-Chloro)-2-thiophenylmethylaminomethyl)dihydrospectinomycin Trihydrobromide] | > 200 µg/mL | – | – | 3.1 µg/mL | 12.5 µg/mL | > 200 µg/mL | 50 µg/mL | 25 to 50 µg/mL | 1.6 µg/mL | 200 µg/mL | 25 to 50 µg/mL | 200 µg/mL | ≥ 200 µg/mL | 13 mm | 100 µg/mL | 50 µg/mL | 19 mm | > 200 µg/mL | > 200 µg/mL | 22 mm | MIC [2, 32]: 12.5 µg/mL; MIC ([3]; ATCC49226, read-out: MIC N.g.): 12.5 to 25 µg/mL; MIC [4]: 50 µg/mL; MIC ([6]; Stenotrophomonas maltophilia, ATCC13637, read-out: MIC S.m.): 12.5 µg/mL; MIC [7]: 6.3 µg/mL; MIC [8]: 0.8 µg/mL; zone of inhibition at 4 µg/disc [10]: 20 mm; MIC [17, 31]: 200 µg/mL
CN[C@@H]1[C@H](O)[C@H](NC)[C@H]2O[C@]3(O)[C@H](O[C@@H]2[C@H]1O)O[C@H](C)C[C@]3(O)CNCc1ccc(OC(F)(F)F)cc1 (stereo in doubt) [compound 26, 3′-(S)-3′-[(4-trifluoromethoxyl)benzylaminomethyl)]dihydrospectinomycin Trihydrochloride] | > 200 µg/mL | > 200 µg/mL | 50 to 100 µg/mL | > 200 µg/mL | 6.3 µg/mL | 100 µg/mL | – | ≥ 200 µg/mL | > 200 µg/mL | > 200 µg/mL | 100 to 200 µg/mL | > 200 µg/mL | > 200 µg/mL | – | 100 µg/mL | ≥ 200 µg/mL | – | > 200 µg/mL | 50 to 100 µg/mL | 8 mm | MIC [6, 28]: 50 µg/mL; MIC ([12]; Escherichia coli, ATCC700926, read-out: MIC E.c.): 50 µg/mL
CN[C@@H]1[C@H](O)[C@H](NC)[C@H]2O[C@]3(O)[C@H](O[C@@H]2[C@H]1O)O[C@H](C)C[C@@]3(O)CNCc1ccc(Cl)cc1 [compound 18, 3′-(R)-3′-(4-Chlorobenzylaminomethyl)dihydrospectinomycin Trihydrobromide] | 200 µg/mL | – | 25 µg/mL | 1.6 to 3.1 µg/mL | 3.1 to 6.3 µg/mL | 200 µg/mL | 12.5 to 25 µg/mL | 25 to 50 µg/mL | 0.8 to 1.6 µg/mL | – | 3.1 µg/mL | 100 to 200 µg/mL | 100 to 200 µg/mL | 15 to 16 mm | 12.5 µg/mL | 25 µg/mL | 16 to 18 mm | 200 µg/mL | > 200 µg/mL | 21 mm | MIC [2, 32]: 6.3 to 12.5 µg/mL; MIC [4]: 25 µg/mL; MIC [6, 28]: 25 µg/mL; MIC [7]: 6.3 µg/mL; MIC [8]: 0.8 µg/mL; MIC ([15]; Staphylococcus aureus): 12.5 to 25 µg/mL; MIC [17, 31]: 100 to 200 µg/mL
CN[C@@H]1[C@H](O)[C@H](NC)[C@H]2O[C@]3(O)[C@H](O[C@@H]2[C@H]1O)O[C@H](C)C[C@@]3(O)CNCc1ccc(C(F)(F)F)cc1 [compound 5, 3′-(R)-3′-[(4-trifluoromethyl)benzylaminomethyl)]dihydrospectinomycin Trihydrochloride] | > 200 µg/mL | 12.5 to 25 µg/mL | 100 µg/mL | 1.6 µg/mL | 6.3 to 12.5 µg/mL | 100 µg/mL | 50 µg/mL | 50 µg/mL | 1.6 µg/mL | 25 µg/mL | 6.3 µg/mL | 100 µg/mL | > 200 µg/mL | 17 to 18 mm | 25 µg/mL | 25 to 50 µg/mL | 21 mm | 200 µg/mL | ≥ 200 µg/mL | 27 to 28 mm | MIC [4]: 25 to 50 µg/mL; MIC [6, 28]: 25 µg/mL; MIC [7]: 12.5 µg/mL; MIC [8]: 3.1 to 6.3 µg/mL; zone of inhibition at 4 µg/disc [10]: 18 mm; MIC [17, 31]: 100 µg/mL
CN[C@@H]1[C@H](O)[C@H](NC)[C@H]2O[C@]3(O)[C@H](O[C@@H]2[C@H]1O)O[C@H](C)C[C@]3(O)CNCc1ccc(F)cc1 [compound 28, 3′-(S)-3′-[(4-fluoro)benzylaminomethyl)]dihydrospectinomycin Trihydrochloride] | – | > 200 µg/mL | 200 µg/mL | ≥ 200 µg/mL | ≥ 200 µg/mL | > 200 µg/mL | > 200 µg/mL | > 200 µg/mL | 100 to 200 µg/mL | > 200 µg/mL | – | > 200 µg/mL | – | 0 mm | 200 µg/mL | > 200 µg/mL | 0 mm | – | > 200 µg/mL | 0 mm | –
CN[C@@H]1[C@H](O)[C@H](NC)[C@H]2O[C@]3(O)[C@H](O[C@@H]2[C@H]1O)O[C@H](C)C[C@@]3(O)CNCc1cccnc1 [compound 7, 3′-(R)-3′-(3-pyridinylmethylaminomethyl)dihydrospectinomycin Tetrahydrobromide] | > 200 µg/mL | 200 µg/mL | 200 µg/mL | – | 12.5 to 25 µg/mL | > 200 µg/mL | 50 µg/mL | ≥ 200 µg/mL | 25 µg/mL | > 200 µg/mL | 100 µg/mL | ≥ 200 µg/mL | > 200 µg/mL | 7 mm | 50 to 100 µg/mL | 100 µg/mL | 9 mm | > 200 µg/mL | ≥ 200 µg/mL | 42 mm | MIC [4]: 100 µg/mL; MIC ([5]; Streptococcus pneumoniae): 12.5 to 25 µg/mL; MIC [6, 28]: 100 µg/mL; MIC [7]: 25 µg/mL; MIC [8]: 6.3 µg/mL; zone of inhibition at 4 µg/disc [10]: 7 mm; MIC [17, 31]: ≥ 200 µg/mL

Source: patent US10266544B2, “Aryl substituted aminomethyl spectinomycin analogs as antibacterial agents” (ST. JUDE CHILDREN'S RESEARCH HOSPITAL, INC., priority 2013, dated 2019)
